Results as given in patent publication US11526981B2, “Ecotoxicity evaluation analyzing device including microalgae image analysis program installed therein, and method thereof” (KOREA INSTITUTE OF OCEAN SCIENCE & TECHNOLOGY, priority 2017, dated 2022).

Tested on: dunaliella tertiolecta
Assay: growth inhibition test (72 h) using microalgae, ecotoxicity evaluation
Type: cell-based
Details: 20° C.
Procedure: The used microalgae 1 is dunaliella tertiolecta, and when exposed to stress (toxicity), transforms the state from the original form 51 into a cyst form 61 and loses mobility.
Acetone was used as a toxic substance. In a test method using an exponential formula, the temperature was maintained at 20° C., and the Irradiation was continuously performed using a white fluorescent lamp with an illuminance of 6,000 to 7,000 lx.
Three replicated plots were inoculated with an initial concentration of 20,000 cells/mL, and the shaking speed was set to 100 r/min. Non-toxic filtered seawater containing nutrient medium was used as a dilution water, and growth inhibition was analyzed for 72 hours.
The experimental conditions in examples of the ecotoxicity evaluation analysis device 100 installed with the microalgae image analysis program therein according to the present invention and the analysis method using the same are shown in Table 2.
Referring to FIG. 5, in an example of the microalgae analysis method using the ecotoxicity evaluation analysis device 100 installed with the microalgae image analysis program therein according to the present invention, the performance of the technology of the present invention was verified using representative SR chamber and hemocytometer of the microalgae analysis method as controls. Here, the concentration of the microalgae 1 contained in the sample was analyzed every 24 hours. Cells were dyed in the two controls, whereas measurements were performed without dyeing the cells in the present technology. In the controls, a microscope (200×) was used, and a microalgae 1 counting was performed manually by an experienced expert.
Referring to FIG. 6, a growth inhibition test using microalgae 1 is performed to obtain a 50% effective concentration (EC50) of a toxic substance. The 50% effective concentration is treated as an important data base for various toxicity analysis. […]

CC(C)=O [acetone]
50% effective concentration (EC50) (counting by SR chamber (manual, microscope, dyed cells)): 25.6 mL/L
50% effective concentration (EC50) (counting by developed analyzer (present invention technology, CMOS shadow image, no dyeing)): 24.2 mL/L
50% effective concentration (EC50) (counting by hemocytometer (manual, microscope, dyed cells)): 24.9 mL/L
